This data set can be described thus: Dynamic Vapour Sorption (DVS) assessment. The format is physicochemical. The procedure: A Dynamic Vapour Sorption (DVS) profile of Form 1 was obtained using an SMS DVS-1 with water as a reagent at 25° C. 20-30 mg of sample were placed in a glass bulb and equilibrated at 30% RH. The % RH was increased to 90% in 10% steps.

Structures can show the parent of a compound that is named as a salt.

This is an account of results in patent US7960551B2, “Compound” (Glaxo Group Limited, priority 2007, dated 2011).

For `COc1cc(NC(=O)CCN2CCC(OC(=O)Nc3ccccc3-c3ccccc3)CC2)c(Cl)cc1CNC[C@H](O)c1ccc(O)c2[nH]c(=O)ccc12` [Form 1, Biphenyl-2-ylcarbamic Acid 1-[2-(2-Chloro-4-{[(R)-2-hydroxy-2-(8-hydroxy-2-oxo-1,2-dihydroquinolin-5-yl)ethylamino]methyl}-5-methoxyphenylcarbamoyl)-ethyl]piperidin-4-yl Ester Succinic Acid Salt (Form 1)], the deliquescence entry (exposed to atmospheric moisture / DVS profile) is “not to be deliquescent”. The “weight gain (hygroscopicity)” value (humidity range of 30% relative humidity to 90% relative humidity, water, 25° C.) is recorded as “less than 2.0%”. For the same compound, the sorption/desorption profile entry (two sorption/desorption cycles, 0-90% RH in 10% steps, 25° C.) is reported as “reversible”.
